Results taken from patent publication US6344473B1, “Imidazoles useful as nitric oxide synthase inhibitors” (G.D. Searle & Co., priority 2000, dated 2002).
Where a name gives a salt, the structure may show the parent alone.

Assays:
[1] = molecular target: hiNOS (Homo sapiens, UniProt P35228); test: Citrulline assay for nitric oxide synthase, human in vitro enzyme data, hiNOS; format: biochemical; settings: human inducible NOS
[2] = molecular target: hecNOS (Homo sapiens, UniProt P29474); test: Citrulline assay for nitric oxide synthase, human in vitro enzyme data, hecNOS; format: biochemical; settings: human endothelial constitutive NOS
[3] = molecular target: hncNOS (Homo sapiens, UniProt P29475); test: Citrulline assay for nitric oxide synthase, human in vitro enzyme data, hncNOS; format: biochemical; settings: human neuronal constitutive NOS
[4] = test system: plasma nitrites induced by endotoxin (LPS); test: Low Dose LPS in vivo low-endotoxin assay (plasma nitrites); settings: mouse

IC50 [1] [µM]	IC50 [2] [µM]	IC50 [3] [µM]	Compound	Low Dose LPS in vivo Effective Dose (p.o.), inhibition ([4]; 3 mg/kg/day p.o.) [% inh.]	Low Dose LPS in vivo Effective Dose (p.o.), inhibition ([4]; 10 mg/kg/day p.o.) [% inh.]
> 1000	> 1000	> 1000	Cc1noc(=O)n1CCCC[C@H](NC(=O)OC(C)(C)C)C(=O)O [Example 1, αS-[[(1,1-dimethylethoxy)carbonyl]amino]-4,5-dihydro-3-methyl-5-oxo-1,2,4-oxadiazole-4-hexanoic acid]	–	–
–	–	–	Cc1noc(=O)n1CCCCC(N)C(=O)O (centres unmarked) [Example 2, αS-amino-4,5-dihydro-3-methyl-5-oxo-1,2,4-oxadiazole-4-hexanoic acid, monohydrochloride]	39	42
124	1430	200	CCOC(=O)[C@@H](N)CCCCn1c(C)noc1=O [Example 3, ethyl αS-amino-4,5-dihydro-3-methyl-5-oxo-1,2,4-oxadiazole-4-hexanoate, monohydrochloride]	–	–
